Reference: PubChem BioAssay (NCI)
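Method: 48-hour compound exposure of cells in 96-well plates, five concentrations, linear interpolation of endpoints. GI50 marks 50% less growth. TGI is the concentration that stops growth completely.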

How the values were obtained:
Test in all cases: DTP human tumour cell line panel, 48 h
A498 renal = system: A498 renal
HCT-116 colon = system: HCT-116 colon
SK-MEL-5 melanoma = system: SK-MEL-5 melanoma
OVCAR-4 ovarian = system: OVCAR-4 ovarian
HOP-92 NSCLC = system: HOP-92 NSCLC
MOLT-4 leukemia = system: MOLT-4 leukemia
UO-31 renal = system: UO-31 renal
CAKI-1 renal = system: CAKI-1 renal
HL-60(TB) leukemia = system: HL-60(TB) leukemia
RPMI-8226 leukemia = system: RPMI-8226 leukemia

Row | Structure (SMILES) | TGI (A498 renal) [µM] | TGI (HCT-116 colon) [µM] | TGI (SK-MEL-5 melanoma) [µM] | TGI (OVCAR-4 ovarian) [µM] | TGI (HOP-92 NSCLC) [µM] | TGI (MOLT-4 leukemia) [µM] | TGI (UO-31 renal) [µM] | TGI (CAKI-1 renal) [µM] | TGI (HL-60(TB) leukemia) [µM] | TGI (RPMI-8226 leukemia) [µM] | GI50 (A498 renal) [µM] | GI50 (HL-60(TB) leukemia) [µM] | GI50 (SK-MEL-5 melanoma) [µM] | GI50 (OVCAR-4 ovarian) [µM] | GI50 (HOP-92 NSCLC) [µM] | GI50 (MOLT-4 leukemia) [µM] | GI50 (UO-31 renal) [µM] | GI50 (RPMI-8226 leukemia) [µM] | GI50 (CAKI-1 renal) [µM]
1 | O=C1C=C2S[C@H]3C[C@]2(C=C1Br)c1c(c(O)c2c4c1=NCCC=4C=N2)N3 | 13.3 | 0.342 | 2.38 | 0.985 | 2.28 | 0.418 | 2.94 | 3.07 |  |  |  |  |  |  |  |  |  |  | 
2 | C=C1c2nc3ccccc3n2C=C(c2ccc(Cl)cc2)N1c1ccc(OCCN2CCOCC2)cc1 | > 100 | > 100 | 71.5 | > 100 | > 100 |  | > 100 |  | 35 | 10.9 |  |  |  |  |  |  |  |  | 
3 | O=C(N=Nc1ccc([N+](=O)[O-])cc1)NNc1ccc([N+](=O)[O-])cc1 | 26.6 | 30.3 | 31.2 | 44.8 |  | 40.8 | 32.6 | > 100 | 46.9 | 58.2 |  |  |  |  |  |  |  |  | 
4 | COc1cc2c(cc1C)NC(=O)/C2=C/c1c(Cl)[nH]c2cc(C)c(OC)cc12 | 23.1 | 18.1 | 10.6 | 18 | 23.7 | 17.8 | 23.4 | 21.2 | 3.39 | > 48.9 |  |  |  |  |  |  |  |  | 
5 | CCN(CC)CCN1C(=O)c2cccc3c(-c4ccc5c(c4)ncn5C4CCCCC4)ccc(c23)C1=O | 3.22 |  | 2.61 | 4.56 | 1.65 | 3.88 | 2.28 | 5.45 | 4.61 | 3.53 | 1.65 | 1.95 | 1.32 | 1.07 | 0.372 | 1.1 | 0.583 | 1.17 | 1.71
6 | Nn1c(CNc2ccc(-c3nnc(Nc4ccc(Cl)cc4)n3N)cc2)nnc1Nc1ccc(Cl)cc1 | > 100 | > 100 | > 100 | > 100 | > 100 | > 100 | > 100 | > 100 |  | > 100 |  |  |  |  |  |  |  |  | 
7 | O=c1oc2ncccc2n1Cc1ccc([N+](=O)[O-])cc1 | > 100 | > 100 | > 100 | > 100 | > 100 | > 100 | > 100 | > 100 | > 100 | > 100 |  |  |  |  |  |  |  |  | 
8 | COC1/C=C\C=C(/C)C(=O)NC2=CC(=O)C=C(C2=O)C(OC)C(C)CC(OC)C(OC)C(C)/C=C(/C)C1OC(N)=O (stereo not drawn) | 28.4 | 10.3 | 20.9 | 21.8 | 4.52 | 1.25 | 30 | 26.3 | 0.554 | 12.1 |  |  |  |  |  |  |  |  | 
9 | CSCCC(NC(=O)C(Cc1ccccc1)NC(=O)CNC(=O)CNC(=O)C(N)Cc1ccc(O)cc1)C(=O)O (stereo not drawn) | > 100 | > 100 | > 100 | > 100 | > 100 | > 100 | > 100 | > 100 | > 100 |  |  |  |  |  |  |  |  |  | 
10 | C=CCn1c2ccccc2c2c(C)c3cnccc3c(C)c21 | 49.8 | 46.9 | 56.9 | 64.2 | 29.8 | 9.82 | 32.8 | 6.75 | 11.9 | 29.5 |  |  |  |  |  |  |  |  | 
11 | CC(C)(C)OC(=O)N1C(C2=COc3ccccc3O2)=COc2ccccc21 | 40.2 | 72.7 | 64.4 | > 100 | 73.2 | 54 | > 100 | > 100 | 45.5 | 43.5 |  |  |  |  |  |  |  |  | 
12 | N#CS/C(C(Cl)=C(Cl)Cl)=C(/Cl)[N+](=O)[O-] | 38.2 | 3 | 6.37 |  |  | 2.19 | 3.1 | 2.42 | 0.512 | 4.25 |  |  |  |  |  |  |  |  | 
13 | Cn1c(-c2ccccc2)cc(-c2ccc3c(c2)OCO3)c1-c1cccs1 | > 100 | > 100 | > 100 | > 100 | > 100 | > 100 | > 100 |  | > 100 | > 100 |  |  |  |  |  |  |  |  | 
14 | CCOC(=O)/C(C(=S)NC)=C(/N)N1CCCC1 | > 100 | > 100 | > 100 | > 100 | > 100 | > 100 | > 100 | > 100 | > 100 | > 100 |  |  |  |  |  |  |  |  | 
15 | O=C(Nc1ccc(Cl)cc1)c1cc(S(=O)(=O)Nc2n[nH]c(=O)[nH]2)c(SSc2cc(Cl)c(C(=O)Nc3ccc(Cl)cc3)cc2S(=O)(=O)Nc2n[nH]c(=O)[nH]2)cc1Cl | > 100 | > 100 | > 100 | > 100 | > 100 | > 100 | > 100 | > 100 | > 100 | > 100 |  |  |  |  |  |  |  |  | 
16 | O=C(N/N=C(/COc1cccc(Cl)c1)N=Cc1ccncc1)c1ccncc1 | > 100 | > 100 |  | > 100 | > 100 | > 100 |  | > 100 | > 100 | > 100 |  |  |  |  |  |  |  |  | 
17 | O=C1/C(=C/c2ccc(O)cc2)NC(=S)N1CN1CCCCC1 | > 100 | > 100 | > 100 | > 100 | > 100 | > 100 | > 100 |  | > 100 | > 100 |  |  |  |  |  |  |  |  | 
18 | OC(c1cc(C(O)(C(F)(F)F)C(F)(F)F)ncn1)(C(F)(F)F)C(F)(F)F | > 10 | > 10 | > 10 | > 10 | > 10 | > 10 | > 10 | > 10 | > 10 | > 10 |  |  |  |  |  |  |  |  | 
19 | CC1=CC(c2ccccc2)OP1(=O)c1ccccc1 (stereo not drawn) | > 100 | > 100 | > 100 | > 100 | > 100 |  |  | > 100 | > 100 |  |  |  |  |  |  |  |  |  | 
20 | CCCCc1ccc(Nc2nc3c(ncn3C3OC(COC(C)=O)C(OC(C)=O)C3OC(C)=O)c(=O)[nH]2)cc1 (stereo not drawn) | > 100 | 31.9 | 31.1 | 52.9 | 30.4 | 37.8 | > 100 | > 100 | 55.6 | 48.9 |  |  |  |  |  |  |  |  | 
21 | N#CC12COC3(CCCCC3C1(C#N)C#N)OC2=N (stereo not drawn) | 39.3 | 25.1 | 23.5 |  | 18.5 | 79.7 | 30.6 | 14.2 |  |  |  |  |  |  |  |  |  |  | 
22 | COC(=O)C12CCC(C(=O)OC)(Cc3c(c4ccccc4n3S(=O)(=O)c3ccccc3)C1)C2=O (stereo not drawn) | > 100 | > 26.5 | > 100 | > 100 | > 100 | > 100 | > 100 | > 100 |  | > 100 |  |  |  |  |  |  |  |  | 
